A short description of series [1]: Differential scanning calorimetry (DSC) analysis. The class given is physicochemical. The conditions noted are these: equilibrated at 30° C., heated at 10° C./min to 300° C. On the procedure:
The differential scanning calorimetry (DSC) analysis was obtained using a DSC-821 Mettler-Toledo, serial number 5117423874. Samples were weighed into an aluminium pan, an aluminium lid placed on top of the sample and compressed with a brass rod. Samples were equilibrated at 30° C. and heated at 10° C./min to 300° C. The instrument was calibrated using indium and zinc standards.
A general note: Differential scanning calorimetry records heat flow against a reference as temperature is scanned.

Series [2] in a line: Thermogravimetric (TGA) analysis. The series is classed as physicochemical. Here is the method: The thermogravimetric (TGA) analysis was obtained using a TGA-SDTA-851 Mettler-Toledo, serial number 5118408555. Samples were placed into a tared aluminium pan and then positioned on a platinum crucible. Samples were heated from 30° C. at 10° C./min to 350° C. The instrument was calibrated using indium and aluminium standards.

Each structure is given as a SMILES string.

Here are results for one compound from patent US8283342B2, “Napadisylate salt of 5-(2-{[6-(2,2-difluoro-2-phenylethoxy) hexyl]amino}-1-hydroxyethyl)-8-hydroxyquinolin-2(1H)-one as agonist of the β2 adrenergic receptor” (Almirall S.A., priority 2007, dated 2012).

For `O=S(=O)(O)c1cccc2c(S(=O)(=O)O)cccc12.O=c1ccc2c([C@@H](O)CNCCCCCCOCC(F)(F)c3ccccc3)ccc(O)c2[nH]1.O=c1ccc2c([C@@H](O)CNCCCCCCOCC(F)(F)c3ccccc3)ccc(O)c2[nH]1` [5-(-2-(6-(2,2-Difluoro-2-phenylethoxy)hexylamino)-1(R)-hydroxyethyl)-8-hydroxyquinolin-2(1H)-one heminapadisylate], the “stability (no changes prior to the melting point range; no conversion into other polymorphs, no decomposition)” value in series [1] is “high stability”. Also, the “weight loss due to the decomposition of the sample” value in series [2] (from approximately 200° C. to 220° C., heated from 30° C. at 10° C./min to 350° C.) turned out to be 3.1 % w/w. Besides, the “hygroscopicity (no solvent/water release)” value in series [2] (prior to 200° C., in particular at 80-100° C., no change) is listed as “lack of hygroscopicity”.
